test system: HeLa cells; experiment: Cell proliferation assay (XTT), cytostatic activity; type: cell-based; conditions: 72-h treatment, XTT cell proliferation kit
Protocol: […] cells were seeded in 96-well plates and incubated in the presence or the absence of the indicated compounds at concentrations ranging from 10^-5 to 10^-12 M. The cytostatic activity was measured after 72-h treatments using the XTT (sodium 3'-[1-(phenylaminocarbonyl)-3,4-tetrazolium]-bis(4- methoxy-6-nitro)-benzenesulfonic acid hydrate) cell proliferation kit (Roche Molecular Biochemicals; Mannheim, Germany) following the manufacturer's specifications. Each condition was seeded in triplicate, and experiments were repeated three times to calculate IC values by non-linear regression fitting the data.

Row | Molecule | IC50
1 | 5-(N-(3,5-dimethoxyphenyl)sulfamoyl)-1-methyl-1H-indole-3-carboxamide [Compound 54] | 1770 nM
2 | COc1cc(C(=NO)c2ccc3c(c2)c(C#N)cn3C)cc(SC)n1 [Compound 88] | > 1000 nM
3 | C=C(c1cc(Cl)nc(SC)c1)c1ccc2c(c1)c(C#N)cn2C [Compound 71] | 100 nM
4 | COc1ccc(C(C)c2ccc3c(c2)c(C=NN)cn3C)c(OC)c1OC (stereo not shown) [Compound 22] | 420 nM
5 | 1-Methyl-5-[1-(2,3,4-trimethoxyphenyl)vinyl]-1H-indol-3-ylmethanol [Compound 18] | 300 nM
6 | 1-Methyl-5-(2,3,4- trimethoxybenzoyl)-1H-indole-3-carbonitrile [Compound 26] | > 1000 nM

same assay, conditions: Homo sapiens, 72-h treatment, XTT cell proliferation kit

Row | IC50 | Molecule
7 | 600 nM | C=C(c1cc(Cl)nc(N(C)C)c1)c1ccc2c(c1)c(C#N)cn2C [Compound 100, 5-(1-(2-chloro-6-(dimethylamino)pyridin-4-yl)vinyl)-1-methyl-1H-indole-3-carbonitrile]
8 | 200 nM | COc1cc(C(=O)c2ccc3c(ccn3C)c2)cc(SC)n1 [Compound 81, (2-methoxy-6-(methylthio)pyridin-4-yl)(1-methyl-1H-indol-5-yl)methanone]
9 | > 1000 nM | CN(C)c1cc(C(=O)c2ccc3c(ccn3C)c2)cc(Cl)n1 [Compound 98, (2-chloro-6-(dimethylamino)pyridin-4-yl)(1-methyl-1H-indol-5-yl)methanone]
10 | 310 nM | COc1ccc(C(C)c2ccc3c(ccn3C)c2)c(OC)c1OC (stereo not shown) [Compound 14, 1-Methyl-5-(1-(2,3,4-trimethoxyphenyl)ethyl)-1H-indole]
11 | 320 nM | COc1cc(C(=O)c2ccc3c(c2)c(C=O)cn3C)cc(OC)c1OC [Compound 9, 1-Methyl-5-[1-(3,4,5-trimethoxybenzoyl)]-1H-indole-3-carbaldehyde]
12 | > 1000 nM | CSc1cc(C(=O)c2ccc3c(c2)c(C=O)cn3C)cc(SC)n1 [Compound 76, 5-(2,6-bis(methylsulfanyl)isonicotinoyl)-1-methyl-1H-indole-3-carbaldehyde]
13 | 300 nM | C=C(c1cc(SC)nc(N(C)C)c1)c1ccc2c(c1)c(C=O)cn2C [Compound 93, 5-(1-(2-(dimethylamino)-6-(methylthio)pyridin-4-yl)vinyl)-1-methyl-1H-indole-3-carbaldehyde]
14 | > 1000 nM | COc1cc(C(O)c2ccc3c(ccn3C)c2)cc(OC)c1OC (stereo not shown) [Compound 1, (1-methyl-1H-indol-5-yl)(3,4,5-trimethoxyphenyl)methanol]
15 | 400 nM | C=C(c1cc(OC)nc(SC)c1)c1ccc2c(c1)c(C=O)cn2C [Compound 85, 5-(1-(2-methoxy-6-(methylsulfanyl)pyridin-4-yl)vinyl)-1-methyl-1H-indole-3-carbaldehyde]
16 | 40 nM | C=C(c1cc(Cl)nc(Cl)c1)c1ccc2c(ccn2C)c1 [Compound 56, 5-(1-(2,6-dichloropyridin-4-yl)vinyl)-1-methyl-1H-indole]
17 | > 1000 nM | C=C(c1cc(SC)nc(SC)c1)c1ccc2c(c1)c(C(=O)O)cn2C [Compound 80, 5-(1-(2,6-Bis(methylsulfanyl)pyridin-4-yl)vinyl)-1-methyl-1H-indole-3-carboxylic acid]
18 | 500 nM | CSc1cc(C(=O)c2ccc3c(ccn3C)c2)cc(N(C)C)n1 [Compound 89, (2-(dimethylamino)-6-(methylthio)pyridin-4-yl)(1-methyl-1H-indol-5-yl)methanone]
19 | 200 nM | C=C(c1cc(Cl)nc(Cl)c1)c1ccc2c(c1)c(C=O)cn2C [Compound 58, 5-(1-(2,6-dichloropyridin-4-yl)vinyl)-1-methyl-1H-indole-3-carbaldehyde]
20 | 70 nM | C=C(c1cc(Cl)nc(SC)c1)c1ccc2c(c1)c(C=O)cn2C [Compound 68, 5-(1-(2-chloro-6-(methylsulfanyl)pyridin-4-yl)vinyl)-1-methyl-1H-indole-3-carbaldehyde]
21 | > 1000 nM | CSc1cc(C(=O)c2ccc3c(c2)c(C=O)cn3C)cc(Cl)n1 [Compound 67, 5-(2-Chloro-6-(methylsulfanyl)isonicotinoyl)-1-methyl-1H indole-3-carbaldehyde]
22 | 80 nM | C=C(c1cc(Cl)nc(Cl)c1)c1ccc2c(c1)c(C#N)cn2C [Compound 62, 5-(1-(2,6-dichloropyridin-4-yl)vinyl)-1-methyl-1H-indole-3-carbonitrile]
23 | 100 nM | C=C(c1cc(SC)nc(SC)c1)c1ccc2c(c1)c(C=O)cn2C [Compound 77, 5-(1-(2,6-bis(methylsulfanyl)pyridin-4-yl)vinyl)-1-methyl-1H-indole-3-carbaldehyde]
24 | 25 nM | COc1cc(C(=O)c2ccc3c(ccn3C)c2)cc(OC)c1OC [Compound 3, (1-methyl-1H-indol-5-yl)(3,4,5-trimethoxyphenyl)methanone]
25 | 200 nM | C=C(c1cc(SC)nc(N(C)C)c1)c1ccc2c(ccn2C)c1 [Compound 90, N,N-dimethyl-4-(1-(1-methyl-1H-indol-5-yl)vinyl)-6-(methylthio)pyridin-2-amine]
26 | 300 nM | CSc1cc(C(=O)c2ccc3c(ccn3C)c2)cc(Cl)n1 [Compound 64, (2-chloro-6-(methylthio)pyridin-4-yl)(1-methyl-1H-indol-5-yl)methanone]

Row | IC50 | Molecule
27 | 20 nM | C=C(c1cc(OC)c(OC)c(OC)c1)c1ccc2c(c1)c(C=O)cn2C [Compound 11, 1-Methyl-5-[1-(3,4,5-trimethoxyphenyl)vinyl]-1H-indole-3-carbaldehyde]
28 | > 1000 nM | C=C(c1cc(Cl)nc(N(C)C)c1)c1ccc2c(c1)c(C=O)cn2C [Compound 101, 5-(1-(2-chloro-6-(dimethylamino)pyridin-4-yl)vinyl)-1-methyl-1H-indole-3-carbaldehyde]
29 | 200 nM | CSc1cc(C(=O)c2ccc3c(ccn3C)c2)cc(SC)n1 [Compound 73, (2,6-Bis(methylsulfanyl)pyridin-4-yl) (1-methyl-1H-indol-5-yl)methanone]
30 | 100 nM | C=C(c1cc(Cl)nc(SC)c1)c1ccc2c(ccn2C)c1 [Compound 65, 5-(1-(2-Chloro-6-(methylsulfanyl)pyridin-4-yl)vinyl)-1-methyl-1H-indole]
31 | 7000 nM | COc1cc(C(=O)c2ccc3c(c2)c(C(=O)O)cn3C)cc(OC)c1OC [Compound 15, 1-Methyl-5-(3,4,5-trimethoxybenzoyl)-1H-indole-3-carboxylic acid]
32 | 300 nM | CSc1cc(C(=NO)c2ccc3c(c2)c(C#N)cn3C)cc(N(C)C)n1 [Compound 95, 5-((2-(dimethylamino)-6-(methylthio)pyridin-4-yl)(hydroxyimino)methyl)-1-methyl-1H-indole-3-carbonitrile]
33 | 500 nM | CSc1cc(C(=NO)c2ccc3c(ccn3C)c2)cc(SC)n1 (mixture of isomers) [Compound 75, (E/Z)-(2,6-bis(methylsulfanyl)pyridin-4-yl) (1-methyl-1H-indol-5-yl)methanone oximes]
34 | 800 nM | Cn1ccc2cc(C(=O)c3cc(Cl)nc(Cl)c3)ccc21 [Compound 55, (2,6-dichloropyridin-4-yl)(1-methyl-1H-indol-5-yl)methanone]
35 | 32 nM | C=C(c1ccc2c(ccn2C)c1)c1ccc(OC)c(OC)c1OC [Compound 6, 1-methyl-5-(1-(2,3,4-trimethoxyphenyl)vinyl)-1H-indole]
36 | 600 nM | C=C(c1cc(SC)nc(SC)c1)c1ccc2c(c1)c(C#N)cn2C [Compound 79, 5-(1-(2,6-bis(methylsulfanyl)pyridin-4-yl)vinyl)-1-methyl-1H-indole-3-carbonitrile]
37 | > 1000 nM | Cn1cc(C#N)c2cc(C(=NO)c3cc(Cl)nc(Cl)c3)ccc21 [Compound 60, 5-((2,6-dichloropyridin-4-yl)(hydroxyimino)methyl)-1-methyl-1H-indole-3-carbonitrile]
38 | 0.64 nM | COc1cc(C(C)c2ccc3c(ccn3C)c2)cc(OC)c1OC (stereo not shown) [Compound 13, 1-Methyl-5-(1-(3,4,5-trimethoxyphenyl)ethyl)-1H-indole]
39 | 50 nM | C=C(c1cc(Cl)nc(Cl)c1)c1ccc2c(c1)c(C(N)=O)cn2C [Compound 63, 5-(1-(2,6-dichloropyridin-4-yl)vinyl)-1-methyl-1H-indole-3-carboxamide]
40 | 2.5 nM | C=C(c1cc(OC)c(OC)c(OC)c1)c1ccc2c(c1)c(C(N)=O)cn2C [Compound 25, 1-Methyl-5-(1-(3,4,5-trimethoxyphenyl)vinyl)-1H-indole-3-carboxamide]
41 | 600 nM | C=C(c1cc(SC)nc(N(C)C)c1)c1ccc2c(c1)c(C#N)cn2C [Compound 96, 5-(1-(2-(dimethylamino)-6-(methylthio)pyridin-4-yl)vinyl)-1-methyl-1H-indole-3-carbonitrile]
42 | > 1000 nM | C=C(c1cc(OC)nc(SC)c1)c1ccc2c(c1)c(C(=O)O)cn2C [Compound 86, 5-(1-(2-methoxy-6-(methylsulfanyl)pyridin-4-yl)vinyl)-1-methyl-1H-indole-3-carboxylic acid]
43 | > 1000 nM | Cn1cc(C=O)c2cc(C(=O)c3cc(Cl)nc(Cl)c3)ccc21 [Compound 57, 5-(2,6-dichloroisonicotinoyl)-1-methyl-1H-indole-3-carbaldehyde]
44 | 780 nM | COc1ccc(C(=O)c2ccc3c(c2)c(C=O)cn3C)c(OC)c1OC [Compound 10, 1-Methyl-5-(2,3,4-trimethoxybenzoyl)-1H-indole-3-carbaldehyde]
45 | 200 nM | COc1cc(C(=NO)c2ccc3c(ccn3C)c2)cc(SC)n1 [Compound 83, (2-methoxy-6-(methylsulfanyl)pyridin-4-yl)(1-methyl-1H-indol-5-yl)methanone oxime]
46 | > 1000 nM | CSc1cc(C(=O)c2ccc3c(c2)c(C=O)cn3C)cc(N(C)C)n1 [Compound 92, 5-(2-(dimethylamino)-6-(methylthio)isonicotinoyl)-1-methyl-1H-indole-3-carbaldehyde]

Source: patent EP4620466A1, “TRIMETHOXYSTYRYL DERIVATIVES FOR USE IN THE TREATMENT OF PACLITAXEL-RESISTANT CANCER” (Instituto de Investigación Biomédica de Salamanca De la …, priority 2024, dated 2025)
